Measured values published in US10626144B2, “Peptide derivatives and uses thereof” (Nosopharm, priority 2014, dated 2020).
Where two headings read alike, the source gives them in different places. Square brackets hold non-standard residues; d marks the D form. Peptide text beside a SMILES is read from it. * marks the point of attachment. Phe(4-tBu) = CC(C)(C)c1ccc(C[C@H](N)C(=O)O)cc1; Phe(3-Cl) = N[C@@H](Cc1cccc(Cl)c1)C(=O)O; Phe(4-Cl) = N[C@@H](Cc1ccc(Cl)cc1)C(=O)O; Phe(4-I) = N[C@@H](Cc1ccc(I)cc1)C(=O)O; Dab(3S-OH) = NC[C@H](O)[C@H](N)C(=O)O; His(τ-Me) = Cn1cnc(C[C@H](N)C(=O)O)c1; His(π-Me) = Cn1cncc1C[C@H](N)C(=O)O; 2Pal = N[C@@H](Cc1ccccn1)C(=O)O; ΔZArg = N=C(N)NCC/C=C(\N)C(=O)O; dOrn = NCCC[C@@H](N)C(=O)O; Pra = C#CC[C@H](N)C(=O)O; NH(CH2)4NH2 = NCCCCN*

How the values were obtained:
[1] = molecular target: N-type calcium channels (Cav2.2) (Rattus norvegicus (Rat), UniProt Q02294); assay: biochemical; format: binding
[2] = system: Pseudomonas aeruginosa ATCC 27853; assay: MIC, broth microdilution (CLSI), reference strain; details: CAMHB
[3] = system: Escherichia coli ATCC 25922; assay: MIC, broth microdilution (CLSI), reference strain; details: CAMHB
[4] = system: Staphylococcus aureus ATCC 13709; assay: MIC, broth microdilution (CLSI), reference strain; details: CAMHB
[5] = system: Acinetobacter baumannii ATCC 19606; assay: MIC, broth microdilution (CLSI), reference strain; details: CAMHB
[6] = class symbol, rat cerebral cortex, [125I]ω-conotoxin GVIA 0.001 nM, 30 minutes at room temperature, read-out: IC50 Cav2.2

| Structure (SMILES) | IC50 [1, 6] [nM] | Pa: MIC Pseudomonas aeruginosa ATCC 27853 [2] | Ec: MIC Escherichia coli ATCC 25922 [3] | Sa: MIC Staphylococcus aureus ATCC 13709 [4] | Ab: MIC Acinetobacter baumannii ATCC 19606 [5] | IC50 [1] [nM] | IC50 ([1]; value in brackets, rat cerebral cortex, [125I]ω-conotoxin GVIA 0.001 nM, read-out: IC50 Cav2.2) [nM] |
| --- | --- | --- | --- | --- | --- | --- | --- |
| C[C@H](NC(=O)[C@H](CCCCN)NC(=O)[C@H](Cc1cnc[nH]1)NC(=O)[C@@H]1CCCN1C(=O)[C@@H](CCCN)NC(=O)CNC(=O)[C@@H](NC(=O)[C@@H](NC(=O)[C@@H](N)CCCCN)[C@@H](O)CN)[C@@H](O)CN)C(=O)N[C@@H](CCCCN)C(=O)NCCCCN [22.23] (H-K[Dab(3S-OH)][Dab(3S-OH)]G[dOrn]PHKAK-{NH(CH2)4NH2}) | < 30 | − (>32 μg/mL) | − (>32 μg/mL) | ++ (≤8 μg/mL) | − (>32 μg/mL) | – | – |
| C[C@H](NC(=O)[C@@H](NC(=O)[C@@H](NC(=O)[C@@H](N)CCCCN)[C@@H](O)CN)[C@@H](O)CN)C(=O)N[C@H](CCCN)C(=O)N1CCC[C@H]1C(=O)N[C@@H](Cc1cnc[nH]1)C(=O)N[C@@H](CCCCN)C(=O)N/C(=C\CCNC(=N)N)C(=O)N[C@@H](CCCCN)C(=O)NCCCCN [22.24] (H-K[Dab(3S-OH)][Dab(3S-OH)]A[dOrn]PHK[ΔZArg]K-{NH(CH2)4NH2}) | < 30 | − (>32 μg/mL) | − (>32 μg/mL) | ++ (≤8 μg/mL) | − (>32 μg/mL) | – | – |
| C[C@H](NC(=O)[C@@H](NC(=O)[C@@H](N)CCCCN)[C@@H](O)CN)C(=O)NCC(=O)N[C@H](CCCN)C(=O)N1CCC[C@H]1C(=O)N[C@@H](Cc1cnc[nH]1)C(=O)N[C@@H](CCCCN)C(=O)N/C(=C\CCNC(=N)N)C(=O)N[C@@H](CCCCN)C(=O)NCCCCN [24.1] (H-K[Dab(3S-OH)]AG[dOrn]PHK[ΔZArg]K-{NH(CH2)4NH2}) | < 30 | + (≤32 μg/mL) | ++ (≤8 μg/mL) | ++ (≤8 μg/mL) | + (≤32 μg/mL) | – | – |
| C[C@H](NC(=O)[C@@H](NC(=O)[C@@H](N)CCCCN)[C@@H](O)CN)C(=O)NCC(=O)N[C@H](CCCN)C(=O)N1CCC[C@H]1C(=O)N[C@@H](Cc1cncn1C)C(=O)N[C@@H](CCCCN)C(=O)N/C(=C\CCNC(=N)N)C(=O)N[C@@H](CCCCN)C(=O)NCCCCN [24.14] (H-K[Dab(3S-OH)]AG[dOrn]P[His(π-Me)]K[ΔZArg]K-{NH(CH2)4NH2}) | < 30 | + (≤32 μg/mL) | ++ (≤8 μg/mL) | ++ (≤8 μg/mL) | − (>32 μg/mL) | – | – |
| C[C@H](NC(=O)[C@@H](NC(=O)[C@@H](N)CCCCN)[C@@H](O)CN)C(=O)NCC(=O)N[C@H](CCCN)C(=O)N1CCC[C@H]1C(=O)N[C@@H](Cc1cn(C)cn1)C(=O)N[C@@H](CCCCN)C(=O)N/C(=C\CCNC(=N)N)C(=O)N[C@@H](CCCCN)C(=O)NCCCCN [24.15] (H-K[Dab(3S-OH)]AG[dOrn]P[His(τ-Me)]K[ΔZArg]K-{NH(CH2)4NH2}) | < 30 | + (≤32 μg/mL) | ++ (≤8 μg/mL) | ++ (≤8 μg/mL) | − (>32 μg/mL) | – | – |
| C[C@H](NC(=O)[C@@H](NC(=O)[C@@H](N)CCCCN)[C@@H](O)CN)C(=O)NCC(=O)N[C@H](CCCN)C(=O)N1CCC[C@H]1C(=O)N[C@@H](Cc1ccccn1)C(=O)N[C@@H](CCCCN)C(=O)N/C(=C\CCNC(=N)N)C(=O)N[C@@H](CCCCN)C(=O)NCCCCN [24.17] (H-K[Dab(3S-OH)]AG[dOrn]P[2Pal]K[ΔZArg]K-{NH(CH2)4NH2}) | < 30 | − (>32 μg/mL) | ++ (≤8 μg/mL) | ++ (≤8 μg/mL) | − (>32 μg/mL) | – | – |
| C[C@H](NC(=O)[C@@H](NC(=O)[C@@H](N)CCCCN)[C@@H](O)CN)C(=O)NCC(=O)N[C@H](CCCN)C(=O)N1CCC[C@H]1C(=O)N[C@@H](Cc1ccc(O)cc1)C(=O)N[C@@H](CCCCN)C(=O)N/C(=C\CCNC(=N)N)C(=O)N[C@@H](CCCCN)C(=O)NCCCCN [24.20] (H-K[Dab(3S-OH)]AG[dOrn]PYK[ΔZArg]K-{NH(CH2)4NH2}) | < 30 | − (>32 μg/mL) | ++ (≤8 μg/mL) | ++ (≤8 μg/mL) | − (>32 μg/mL) | – | – |
| C[C@H](NC(=O)[C@@H](NC(=O)[C@@H](N)CCCCN)[C@@H](O)CN)C(=O)NCC(=O)N[C@H](CCCN)C(=O)N1CCC[C@H]1C(=O)N[C@@H](CC(N)=O)C(=O)N[C@@H](CCCCN)C(=O)N/C(=C\CCNC(=N)N)C(=O)N[C@@H](CCCCN)C(=O)NCCCCN [24.22] (H-K[Dab(3S-OH)]AG[dOrn]PNK[ΔZArg]K-{NH(CH2)4NH2}) | < 30 | − (>32 μg/mL) | ++ (≤8 μg/mL) | ++ (≤8 μg/mL) | − (>32 μg/mL) | – | – |
| C#CC[C@H](NC(=O)[C@@H]1CCCN1C(=O)[C@@H](CCCN)NC(=O)CNC(=O)[C@H](C)NC(=O)[C@@H](NC(=O)[C@@H](N)CCCCN)[C@@H](O)CN)C(=O)N[C@@H](CCCCN)C(=O)N/C(=C\CCNC(=N)N)C(=O)N[C@@H](CCCCN)C(=O)NCCCCN [24.67] (H-K[Dab(3S-OH)]AG[dOrn]P[Pra]K[ΔZArg]K-{NH(CH2)4NH2}) | < 30 | + (≤32 μg/mL) | ++ (≤8 μg/mL) | − (>32 μg/mL) | − (>32 μg/mL) | – | – |
| C[C@H](NC(=O)[C@@H](NC(=O)[C@@H](N)CCCCN)[C@@H](O)CN)C(=O)NCC(=O)N[C@H](CCCN)C(=O)N1CCC[C@H]1C(=O)N[C@@H](Cc1cn(C)cn1)C(=O)N[C@@H](CCCCN)C(=O)N/C(=C\CCNC(=N)N)C(=O)O [24.76] (H-K[Dab(3S-OH)]AG[dOrn]P[His(τ-Me)]K[ΔZArg]-OH) | > 300 | − (>32 μg/mL) | − (>32 μg/mL) | + (≤32 μg/mL) | − (>32 μg/mL) | – | – |
| C[C@H](NC(=O)[C@@H](NC(=O)[C@@H](N)CCCCN)[C@@H](O)CN)C(=O)NCC(=O)N[C@H](CCCN)C(=O)N1CCC[C@H]1C(=O)N[C@@H](Cc1cccc(Cl)c1)C(=O)N[C@@H](CCCCN)C(=O)N/C(=C\CCNC(=N)N)C(=O)O [24.88] (H-K[Dab(3S-OH)]AG[dOrn]P[Phe(3-Cl)]K[ΔZArg]-OH) | > 300 | − (>32 μg/mL) | ++ (≤8 μg/mL) | ++ (≤8 μg/mL) | − (>32 μg/mL) | – | – |
| C[C@H](NC(=O)[C@@H](NC(=O)[C@@H](N)CCCCN)[C@@H](O)CN)C(=O)NCC(=O)N[C@H](CCCN)C(=O)N1CCC[C@H]1C(=O)N[C@@H](Cc1ccc(C(C)(C)C)cc1)C(=O)N[C@@H](CCCCN)C(=O)N/C(=C\CCNC(=N)N)C(=O)O [24.93] (H-K[Dab(3S-OH)]AG[dOrn]P[Phe(4-tBu)]K[ΔZArg]-OH) | > 300 | − (>32 μg/mL) | ++ (≤8 μg/mL) | ++ (≤8 μg/mL) | − (>32 μg/mL) | – | – |
| C[C@H](NC(=O)[C@@H](NC(=O)[C@@H](N)CCCCN)[C@@H](O)CN)C(=O)NCC(=O)N[C@H](CCCN)C(=O)N1CCC[C@H]1C(=O)N[C@@H](Cc1ccc(Cl)cc1)C(=O)N[C@@H](CCCCN)C(=O)N/C(=C\CCNC(=N)N)C(=O)O [24.97] (H-K[Dab(3S-OH)]AG[dOrn]P[Phe(4-Cl)]K[ΔZArg]-OH) | > 300 | − (>32 μg/mL) | ++ (≤8 μg/mL) | ++ (≤8 μg/mL) | − (>32 μg/mL) | – | – |
| C[C@H](NC(=O)[C@@H](NC(=O)[C@@H](N)CCCCN)[C@@H](O)CN)C(=O)NCC(=O)N[C@H](CCCN)C(=O)N1CCC[C@H]1C(=O)N[C@@H](Cc1ccc(I)cc1)C(=O)N[C@@H](CCCCN)C(=O)N/C(=C\CCNC(=N)N)C(=O)O [24.103] (H-K[Dab(3S-OH)]AG[dOrn]P[Phe(4-I)]K[ΔZArg]-OH) | > 300 | − (>32 μg/mL) | ++ (≤8 μg/mL) | ++ (≤8 μg/mL) | − (>32 μg/mL) | – | – |
| C[C@H](NC(=O)[C@@H](NC(=O)[C@@H](N)CCCCN)[C@@H](O)CN)C(=O)NCC(=O)N[C@H](CCCN)C(=O)N1CCC[C@H]1C(=O)N[C@@H](CC(N)=O)C(=O)N[C@@H](CCCCN)C(=O)N/C(=C\CCNC(=N)N)C(=O)O [24.112] (H-K[Dab(3S-OH)]AG[dOrn]PNK[ΔZArg]-OH) | – | − (>32 μg/mL) | − (>32 μg/mL) | + (≤32 μg/mL) | − (>32 μg/mL) | > 300 | 790 |
| C#CC[C@H](NC(=O)[C@@H]1CCCN1C(=O)[C@@H](CCCN)NC(=O)CNC(=O)[C@H](C)NC(=O)[C@@H](NC(=O)[C@@H](N)CCCCN)[C@@H](O)CN)C(=O)N[C@@H](CCCCN)C(=O)N/C(=C\CCNC(=N)N)C(=O)O [24.135] (H-K[Dab(3S-OH)]AG[dOrn]P[Pra]K[ΔZArg]-OH) | > 300 | − (>32 μg/mL) | + (≤32 μg/mL) | + (≤32 μg/mL) | − (>32 μg/mL) | – | – |
